Measured values from ChEMBL document CHEMBL1123200 (J Med Chem, 1986).

Key:
Rattus norvegicus [1] = organism: Rattus norvegicus; assay: Inhibition was measured for [3H]GABA-uptake from rat synaptosomal membrane.; format: functional
Rattus norvegicus [2] = organism: Rattus norvegicus
Rattus norvegicus [3] = organism: Rattus norvegicus; remark: listed apart in the source

SMILES	Ki (Rattus norvegicus [1]) [µM]	Vmax (pM min-1 mg-1) (Rattus norvegicus [2])	Km (Rattus norvegicus [3]) [µM]
O=C(O)C1CCCNC1 (stereo not given) [NIPECOTIC ACID]	3.8	–	–
O=C(O)C1=CC(=C(c2ccccc2)c2ccccc2)CNC1	104	–	–
NCCCC(=O)O	–	881	4.3
CN1CC(C(=O)O)=CC(=C(c2ccccc2)c2ccccc2)C1	12.9	–	–
